Test results taken from patent US20260109721A1, “IONIZABLE CATIONIC LIPIDS INCORPORATING SILICON: SYNTHESIS AND LNP FORMULATION” (priority 2023, published 2026).
Like-named read-outs stand apart in the source and are kept apart here.

What was measured:
[1] = system: HepG2 cell line; assay: In vitro toxicity study on HepG2 cell line (resazurin, viability and IC50); assay type: cell-based, human; conditions: for IC50: read-out: IC50 value, μM (on HepG2 cell)
Outline: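 HepG2 cells (1000/well) were treated after overnight incubation with lipids at 6.25–800 μM for 48 h. Viability was read by resazurin fluorescence (530/580 nm) after 5 h at 37 °C, relative to ethanol vehicle controls. IC50 values came from concentration-response curves.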

[2] = Encapsulation efficiency of loaded LNPs, RiboGreen RNA assay (Method A); assay type: physicochemical; conditions: encapsulation efficiency of mRNA-loaded LNP, Method A, RiboGreen
Outline: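 mRNA-LNP samples diluted in TE buffer (~4-7 μg/mL RNA) and plated in duplicate with TE or Triton X-100 buffer, then 10 min at 37° C to lyse particles. RiboGreen (1:100 in TE pH 7.5) added after cooling; fluorescence ex 480/em 525, mRNA quantified against RNA standard curve.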

[3] = HepG2 cells, 6.25 μM lipid, 48 h post-treatment, resazurin, relative to ethanol vehicle controls
[4] = HepG2 cells, 12.5 μM lipid, 48 h post-treatment, resazurin, relative to ethanol vehicle controls
[5] = HepG2 cells, 25 μM lipid, 48 h post-treatment, resazurin, relative to ethanol vehicle controls
[6] = HepG2 cells, 50 μM lipid, 48 h post-treatment, resazurin, relative to ethanol vehicle controls
[7] = HepG2 cells, 100 μM lipid, 48 h post-treatment, resazurin, relative to ethanol vehicle controls
[8] = HepG2 cells, 200 μM lipid, 48 h post-treatment, resazurin, relative to ethanol vehicle controls
[9] = HepG2 cells, 400 μM lipid, 48 h post-treatment, resazurin, relative to ethanol vehicle controls
[10] = HepG2 cells, 800 μM lipid, 48 h post-treatment, resazurin, relative to ethanol vehicle controls
[11] = Homo sapiens, lipid toxicity, HepG2, 48 h post-treatment, resazurin, 6.25-800 μM
[12] = lipid toxicity, HepG2, 48 h post-treatment, resazurin, 6.25-800 μM

Structure (SMILES)	Viability (%) at different lipid concentrations, mean [1, 3]	Viability (%) at different lipid concentrations, mean [1, 4]	Viability (%) at different lipid concentrations, mean [1, 5]	Viability (%) at different lipid concentrations, mean [1, 6]	Viability (%) at different lipid concentrations, mean [1, 7]	Viability (%) at different lipid concentrations, mean [1, 8]	Viability (%) at different lipid concentrations, mean [1, 9]	Viability (%) at different lipid concentrations, mean [1, 10]	IC50 [1, 11]	EE (%) [2]	IC50 [1, 12]	Viability (%) at different lipid concentrations, mean ([1]; human, 48 h, 6.25 μM)	Viability (%) at different lipid concentrations, mean ([1]; human, 48 h, 50 μM)	IC50 ([1]; Homo sapiens, HepG2, 48 h)
CCCCCCCC/C=C\CCCCCCCCOC(=O)C(C)(C)CC(OCCCCCCCC/C=C\CCCCCCCC)O[Si](C)(C)OCCCCCCN1CCCC1CO (centres unmarked) [Example 90, (Z)-octadec-9-en-1-yl 4-((((6-(2-(hydroxymethyl)pyrrolidin-1-yl)hexyl)oxy)dimethylsilyl)oxy)-2,2-dimethyl-4-(((Z)-octadec-9-en-1-yl)oxy)butanoate]	101.5%	96.4%	96.6%	100.5%	105.8%	104.9%	93.1%	84.0%	> 800 µM	87%				
CCCCCCCCC(CCCCCC)C(=O)OCCCCCCN(CCCCO)CCCCCCOC(=O)C(CCCCCC)CCCCCCCC (centres unmarked) [ALC-0315, reference compound]	76.8%	97.4%	95.4%	91.6%	84.2%	58.9%	42.9%	20.9%		94%	299 µM			
CCCCC/C=C\C/C=C\CCCCCCCCOC(CCCCCCC/C=C\C/C=C\CCCCC)O[Si](C)(C)OCCCCCCN(C)CC(O)CO (centres unmarked) [Example 59, (24Z,27Z)-14-((8Z,11Z)-heptadeca-8,11-dien-1-yl)-4,12,12-trimethyl-11,13,15-trioxa-4-aza-12-silatritriaconta-24,27-diene-1,2-diol]	97.3%	100.1%	112.6%	112.9%	76.9%	29.0%	18.1%	8.3%	149 µM	88%				
CCCCC/C=C\C/C=C\CCCCCCCCOC(CCCCCCC/C=C\C/C=C\CCCCC)O[Si](C)(C)OCCCCCCN(C)[C@H](CO)Cc1ccccc1 (stereo partly drawn) [Example 77, (2S,23Z,26Z)-2-benzyl-13-((8Z,11Z)-heptadeca-8,11-dien-1-yl)-3,11,11-trimethyl-10,12,14-trioxa-3-aza-11-siladotriaconta-23,26-dien-1-ol]	96.2%	99.9%	101.0%	103.7%	100.6%	100.5%	101.1%	73.8%	> 800 µM	85%				
CCCCCCCCCCCOC(=O)CCCCCN(CCO)CCCCCCCC(=O)OC(CCCCCCCC)CCCCCCCC [SM-102, reference compound]	86.5%	101.5%	101.7%	101.4%	21.2%	0.4%	0.2%	0.0%		88%	85 µM			
CCCCCCCC/C=C\CCCCCCCCOC(=O)C(C)(C)CC(OCCCCCCCC/C=C\CCCCCCCC)O[Si](C)(C)OCCCCCCN(CCCO)CCCO (centres unmarked) [Example 88, (Z)-octadec-9-en-1-yl 1-hydroxy-4-(3-hydroxypropyl)-12,12,16,16-tetramethyl-14-(((Z)-octadec-9-en-1-yl)oxy)-11,13-dioxa-4-aza-12-silaheptadecan-17-oate]	109.1%	112.0%	109.5%	99.6%	77.4%	57.3%	36.6%	21.0%	272 µM	87%				
CCCCC/C=C\C/C=C\CCCCCCCCOC(CCCCCCC/C=C\C/C=C\CCCCC)O[Si](C)(C)OCCCCCCN1CCCCC1CO (centres unmarked) [Example 64, (1-((20Z,23Z)-10-((8Z,11Z)-heptadeca-8,11-dien-1-yl)-8,8-dimethyl-7,9,11-trioxa-8-silanonacosa-20,23-dien-1-yl)piperidin-2-yl)methanol]	99.5%	98.7%	100.3%	97.8%	97.8%	91.7%	80.3%	47.4%	775 µM	85%				
CCCCCCCC/C=C\CCCCCCCCOC(CCCCCCC/C=C\CCCCCCCC)O[Si](C)(C)OCCCCCCN(CCO)CCO (centres unmarked) [Example 47, (Z)-13-((Z)-heptadec-8-en-1-yl)-3-(2-hydroxyethyl)-11,11-dimethyl-10,12,14-trioxa-3-aza-11-siladotriacont-23-en-1-ol]	104.8%	98.6%	99.5%	105.3%	112.3%	116.3%	97.9%	93.6%	> 800 µM	88%				
CCCCCCCC/C=C\CCCCCCCCOC(=O)C(C)(C)CC(OCCCCCCCC/C=C\CCCCCCCC)O[Si](C)(C)OCCCCCCN(C)CCO (centres unmarked) [Example 93, (Z)-octadec-9-en-1-yl 1-hydroxy-3,11,11,15,15-pentamethyl-13-(((Z)-octadec-9-en-1-yl)oxy)-10,12-dioxa-3-aza-11-silahexadecan-16-oate]	102.3%	99.0%	105.2%	112.1%	111.6%	99.7%	83.4%	72.2%	> 800 µM	88%				
CCCCCCCC/C=C\CCCCCCCCOC(=O)C(C)(C)CCC(OCCCCCCCC/C=C\CCCCCCCC)O[Si](C)(C)OCCCCCCN(CCO)CCO (centres unmarked) [Example 94, (Z)-octadec-9-en-1-yl 1-hydroxy-3-(2-hydroxyethyl)-11,11,16,16-tetramethyl-13-(((Z)-octadec-9-en-1-yl)oxy)-10,12-dioxa-3-aza-11-silaheptadecan-17-oate]		96.6%	97.9%		106.5%	107.9%	104.0%	103.1%	> 800 µM	86%		101.5%	101.3%	
CCCCC/C=C\C/C=C\CCCCCCCCOC(CCCCCCC/C=C\C/C=C\CCCCC)O[Si](C)(C)OCCCCCCN1CCCCC1 (centres unmarked) [Example 57, 1-((20Z,23Z)-10-((8Z,11Z)-heptadeca-8,11-dien-1-yl)-8,8-dimethyl-7,9,11-trioxa-8-silanonacosa-20,23-dien-1-yl)piperidine]	97.2%	93.7%	93.2%	94.3%	90.5%	86.9%	47.6%	4.6%		87%				401 µM
